The values below come from patent US11013745B2, “Triazolopyrimidine, triazolopyridine compounds, and the composition thereof for treating PRC2-mediated diseases” (SHANGHAI INSTITUTE OF MATERIA MEDICA, CHINESE ACADEMY OF …, priority 2017, dated 2021).

In general, IC50 refers to the concentration needed to halve the response being measured. What is called bioavailability is the share of a dose that reaches the circulation, judged against a reference dose that is usually intravenous. Broadly, the AUC(0-t) is exposure summed from dosing to a finite time, without extrapolation to infinity. Low readings indicate low exposure, high ones high exposure.

Read-outs that look alike come from different tables or passages of the source.

For series [1], the system named is Pfeiffer cells. Briefly: Growth inhibition of Pfeiffer cells in a long term (14 days), CellTiter-Glo. The series is classed as cell-based, Human. The note with it: 14 days, read-out: Pfeiffer (14 days) IC50. Here is the method:
In a CO2 cell incubator (37° C., 5% CO2), Human diffuse large B-cell lymphoma (DLBCL) cell line, pfeiffer (obtained from ATCC, CRL-2632) were incubated with RPMI 1640 medium (Gibco, purchased from Life Technologies, 22400-089) containing 10% fetal bovine serum (Gibco, purchased from Life Technologies, 10099-141) and 1% antibiotics (penicillin and streptomycin, purchased from Life Technologies, 10378016). […] After seeding the cells, they were placed in a CO2 incubator and allowed to stand for 1 hour. In a 24-well plate containing cells, 2 μL of three-fold gradient of the compounds at 9 different concentrations or DMSO were added to each well, such that the final concentration of the compounds was 0.003-20 μM or 0.3-2000 nM, and the final concentration of DMSO was 0.2%. At day 4, day 7, and day 11 of compound treatment, the fresh medium and compounds were changed, and the cell density of the DMSO control well was diluted to 2*10E5 cells/mL. The cell dilution ratio for other compound wells was the same as that of the DMSO control well. Cell viability was determined by using CellTiter-Glo reagent (purchased from Promega Inc., G7572): cells treated with the compounds for 14 days were transferred to a white 384-well plate (OptiPlate-384, purchased from PerkinElmer, 6007299) at 40 μL/well, an equal volume of CellTiter-Glo reagent was further added. After incubating at room temperature for 10 min, the cold luminescence signal was detected with a multifunctional microplate reader EnVision (PerkinElmer) at a wavelength of 400 to 700 nm. Data were analyzed using GraphPad Prism 5.0 software, and IC50 values were obtained.
On the technique in general: In ATP-based viability assays light output follows the ATP content of the culture.

Series [2] deals with Karpas-422 cells. As to the kind of experiment: Growth inhibition of Karpas-422 cells in a long term (11 days), CellTiter-Glo. The series is classed as cell-based, Human. The note with it: Karpas-422, 11 days, read-out: Karpas-422 (11 days) IC50.
The nature of series [3]: Liver microsomal stability (rat). In kind it is in vitro ADME. On the procedure:
(§1) 1. JANUS and temperature control device was turned on. After being initialized, the pipes were flushed until there was no air bubble in the pipes.
(§2) 2. Preparation of buffers used for the experiment
(§3) Preparation of Tris pH 7.4 buffer (0.1 M): 12.12 g of Tris was dissolved in 1000 mL of H2O, the resulting solution was adjusted to pH 7.4 with 2N HCl, aliquoted at 50 mL per tube, and stored at −20° C.
(§4) Preparation of H2O/0.1% BSA buffer: 200 μL of 25% BSA was added to 50 mL of H2O.
(§5) Preparation of VIVID stock solution: 1 mg of VIVID was dissolved in 1 mL of acetonitrile, aliquoted at 50 μL per tube, and stored at −20° C.
(§6) Preparation of MgCl2 solution (100 mM): 1.016 g of MgCl2 was dissolved in 50 mL Tris pH 7.4 buffer, and aliquoted at 1 mL per tube, and stored at −20° C.
(§7) Preparation of NADPH solution (10 mM): 355 mg of NADPH was dissolved in 42.6 mL of Tris pH 7.4 buffer, aliquoted at 1.8 mL per tube, and stored at −20° C.
(§8) Preparation of Blank control: 7.937 mL of Tris, 163 μL of RLM, 450 μL of MgCl2 solution, 450 μL of NADPH solution and 9 mL of methanol were mixed uniformly, aliquoted at 1 mL per tube, and stored at −20° C.
(§9) 3. Preparation of Compound Working Solution
(§10) Dilution step 1:10 μL of compound stock solution was added to 90 μL of DMSO=1 mM stock solution.
(§11) Dilution step 2: 2 μL of 1 mM stock solution was added to 1 mL of H2O/0.1%6 BSA buffer=[…] working solution.
(§12) Dilution step 3: 245 μL of the working solution was added to a 96-well compound plate and added with 5 μL of VIVID stock solution.
(§13) The 96-well compound plate was shaken on a shaker for 5 min.
(§14) 4. The STM in the JANUS in the computer was open to run the EXCEL file, and the JANUS program was operated and run by following the instructions in the EXCEL file.
(§15) 5. After the JANUS program was finished, acetonitrile/water 50:50 (V/V) was added to column 20 of the 384-well black plate, and blank control was added to column 21 of the 384-well black plate.
(§16) 6. the plate (420 nm-465 nm) was read on a microplate reader to determine the VIVID fluorescence intensity.
(§17) 7. After the plate was sealed, shaken and centrifuged, the sample plate was subjected to the LC/MS instrument for sample analysis.
(§18) A profile of the logarithmic value of the remaining rate of the drug in the incubation system versus the incubation time was plotted, and the slope k was obtained by linear regression. The intrinsic clearance rate in vivo (Clint, mL/min/g) value, the clearance rate in vivo (Cl, mL)/min), liver clearance (Clhep, mL/min) and metabolic bioavailability (% MF) were predicted according to the following equations: […]

A short description of series [4]: Liver microsomal stability (human). In kind it is in vitro ADME. Here is the method: as §1, §2, §3, §4, §5, §6, §7, §8, §9, §10, §11, §12, §13, §14, §15, §16, §17, §18
(In general: Microsomes from liver hold many membrane-bound enzymes, among them those of drug oxidation.)

The subject of series [5] is Pfeiffer cells. Briefly: Pfeiffer cell growth inhibition in a long term (11 days), CellTiter-Glo. The series is classed as cell-based, Human. The note with it: 11 days, read-out: Experiment on Pfeiffer cell growth inhibition in a long term (11 days IC50). On the procedure:
Pfeiffer cells in exponential growth phase were seeded in a 24-well plate with a cell density of 1*10E5 cells/mL. Cells were treated on the same day with the compounds at different concentrations. At day 4 and day 7 of compound treatment, fresh media and compounds were changed. After treated with the compounds for 11 days, cell viability was measured using CellTiter-Glo reagent (Promega Corporation). The data was analyzed using GraphPad Prism 5.0 software and GI50 values were obtained.

Series [6] deals with PRC2 enzyme (Homo sapiens (Human), UniProt O75530). Briefly: PRC2 enzyme activity, TR-FRET method. In kind it is biochemical. On the procedure:
The TR-FRET method was used to measure the PRC2 enzyme activity. First, the enzyme was mixed with compounds at different concentrations and incubated for 30 min at room temperature. The biotin-labeled histone H3 peptide substrate and the cofactor S-adenosylmethionine (SAM) were added to initiate the enzymatic reaction. After reaction was performed at room temperature for 4 hour, Acceptor and Donor were added and incubated for half an hour. The multifunctional microplate reader EnVision (Perkin Elmer Inc.) was used to detect the fluorescence signal. Data were analyzed using GraphPad Prism 5.0 software, and IC50 values were obtained.
(In general: Time-resolved FRET reads energy transfer from a long-lived donor to a nearby acceptor.)

The nature of series [7]: Liver microsomal stability (mouse). In kind it is in vitro ADME.
A short description of series [8]: Oral pharmacokinetics in rats. In kind it is in vivo. The note with it: male, SD, plasma, rat, intragastric, 3 mg/kg. Here is the method: 1. Healthy male SD rats were used as test animals, EED226, […]-07 (3 mg/kg) were administered intragastrically, and the drug concentrations in rat plasma were determined by LC/MS/MS method at different time points after drug administration. The pharmacokinetic behavior of the compounds of the present invention in rats was studied, and the pharmacokinetic properties were evaluated. 2. The test animals were healthy adult male SD rats, with 3 rats in each group, purchased from Shanghai Xipuer-Bikai Laboratory Animal Limited Company. 3. Drug preparation: Compounds EED226, […] were dissolved in DMSO/0.5% HPMC (5/95, v/v) for preparation. The compound SL-ZYE-07 was dissolved in 0.5% HPMC (containing 0.5% Tween 80), vortexed, and sonicated to disperse the solid matter uniformly to obtain a pale white suspension. 4, Operation: EED226, […]-07 were administered to rats by intragastric administration (3 mg/kg), 45 μL of blood was taken through the femoral vein at 0.25, 0.5, 1, 2, 4, 8, 24 hour after administration, and centrifuged in a heparinized centrifuge tube for 5 min, and the plasma samples were separated for analysis. The contents of test compounds in rat plasma after intragastric administration of different compounds were determined by Liquid chromatography-mass spectrometry (LC-MS/MS).

For series [9], the system named is SU-DHL-4 cells. As to the kind of experiment: Growth inhibition of SU-DHL-4 cells in a long term (11 days), CellTiter-Glo. The series is classed as cell-based, Human. The note with it: SU-DHL-4, 11 days, read-out: SU-DHL-4 (11 days) IC50.

Sequence of PRC2 enzyme (O75530 whole entry): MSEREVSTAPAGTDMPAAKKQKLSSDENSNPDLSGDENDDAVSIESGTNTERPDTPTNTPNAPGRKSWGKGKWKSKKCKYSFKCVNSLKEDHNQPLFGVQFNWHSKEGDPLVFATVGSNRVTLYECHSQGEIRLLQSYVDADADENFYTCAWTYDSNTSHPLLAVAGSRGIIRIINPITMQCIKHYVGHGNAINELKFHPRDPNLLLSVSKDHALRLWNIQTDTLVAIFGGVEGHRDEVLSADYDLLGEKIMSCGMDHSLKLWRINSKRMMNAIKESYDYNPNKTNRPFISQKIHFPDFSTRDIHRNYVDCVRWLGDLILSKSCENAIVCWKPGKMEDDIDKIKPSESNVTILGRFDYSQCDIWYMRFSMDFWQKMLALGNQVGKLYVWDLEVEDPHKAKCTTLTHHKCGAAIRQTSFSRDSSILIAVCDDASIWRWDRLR
Sequence of PRC2 enzyme (Q15910 whole entry partner): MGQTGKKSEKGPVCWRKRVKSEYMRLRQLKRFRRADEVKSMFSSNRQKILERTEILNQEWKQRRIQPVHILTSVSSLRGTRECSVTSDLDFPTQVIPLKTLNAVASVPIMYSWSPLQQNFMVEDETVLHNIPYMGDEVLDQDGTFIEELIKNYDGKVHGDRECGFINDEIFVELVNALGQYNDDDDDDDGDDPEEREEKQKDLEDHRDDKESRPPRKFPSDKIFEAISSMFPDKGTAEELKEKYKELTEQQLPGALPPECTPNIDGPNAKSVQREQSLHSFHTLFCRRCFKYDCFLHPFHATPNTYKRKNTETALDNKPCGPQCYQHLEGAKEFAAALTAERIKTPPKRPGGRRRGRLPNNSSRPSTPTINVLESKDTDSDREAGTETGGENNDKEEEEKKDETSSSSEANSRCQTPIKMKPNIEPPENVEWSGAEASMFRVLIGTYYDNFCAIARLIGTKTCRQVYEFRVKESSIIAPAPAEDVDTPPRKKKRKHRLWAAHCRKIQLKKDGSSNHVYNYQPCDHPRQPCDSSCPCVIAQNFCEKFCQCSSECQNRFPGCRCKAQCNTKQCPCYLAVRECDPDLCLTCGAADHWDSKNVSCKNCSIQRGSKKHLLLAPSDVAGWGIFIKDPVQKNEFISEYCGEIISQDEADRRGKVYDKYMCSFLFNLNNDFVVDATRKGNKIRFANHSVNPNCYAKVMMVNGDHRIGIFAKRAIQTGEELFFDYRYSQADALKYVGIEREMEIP
Sequence of PRC2 enzyme (Q15022 whole entry partner): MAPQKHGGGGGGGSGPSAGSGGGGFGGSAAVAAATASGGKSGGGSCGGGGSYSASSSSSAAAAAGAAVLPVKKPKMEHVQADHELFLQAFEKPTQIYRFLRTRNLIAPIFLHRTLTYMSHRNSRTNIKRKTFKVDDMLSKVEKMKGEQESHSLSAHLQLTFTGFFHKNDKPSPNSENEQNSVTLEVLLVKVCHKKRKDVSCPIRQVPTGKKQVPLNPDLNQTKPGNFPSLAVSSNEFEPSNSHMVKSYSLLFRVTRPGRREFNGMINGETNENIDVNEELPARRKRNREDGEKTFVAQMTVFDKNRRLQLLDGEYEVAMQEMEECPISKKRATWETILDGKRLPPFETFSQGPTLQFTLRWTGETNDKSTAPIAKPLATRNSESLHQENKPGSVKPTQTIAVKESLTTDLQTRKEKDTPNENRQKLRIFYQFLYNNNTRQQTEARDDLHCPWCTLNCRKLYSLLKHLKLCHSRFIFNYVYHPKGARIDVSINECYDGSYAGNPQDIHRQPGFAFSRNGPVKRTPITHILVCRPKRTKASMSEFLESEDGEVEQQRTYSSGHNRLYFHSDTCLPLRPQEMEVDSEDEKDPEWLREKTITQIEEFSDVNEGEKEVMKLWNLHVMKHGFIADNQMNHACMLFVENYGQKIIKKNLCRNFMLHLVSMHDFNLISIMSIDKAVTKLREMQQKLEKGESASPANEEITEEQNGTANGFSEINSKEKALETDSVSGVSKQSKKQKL

With `CN1CC=C(c2cnc(NCc3c(F)ccc4c3CCO4)n3cnnc23)CC1` [SL-E23], the IC50 is 2 nM in series [1] (Homo sapiens, 336 h); 2.8 nM in series [2] (Homo sapiens, 264 h); 7.7 nM in [5] (Homo sapiens, 264 h); 4.7 nM in series [6]. Besides, the “Clearance rate in vivo Clint In Vivo Extpl” value in series [3] (rat, microsomes) came out at 15.8 mL/min; in series [4] (human, microsomes) it was 807 mL/min; in series [7] (mouse, microsomes), 3.67 mL/min. In addition, the “Intrinsic clearance rate in vivo Clint In Vitro” value is given as 35.0 mL/min/gprot in series [3] (rat, microsomes); 10.5 mL/min/gprot in series [4] (human, microsomes); 54.4 mL/min/gprot in series [7] (mouse, microsomes). Also, the “Liver clearance rate Clint Hep In Vivo Extpl” value in series [3] (rat, microsomes) amounted to 8.81 mL/min; in [4] (human, microsomes), 525 mL/min; in series [7] (mouse, microsomes) it was 1.65 mL/min. Further, the half-life in series [3] (rat, microsomes, pH 7.4, Half life T-half) was 1 h; in series [4] (human, microsomes, pH 7.4, Half life T-half), 3.32 h; in [7] (mouse, microsomes, pH 7.4, Half life T-half), 0.643 h. Besides, the “Metabolic bioavailability MF %” value in [3] (rat, pH 7.4) is 55.9%; in series [7] (mouse, pH 7.4), 45.0%. Further, in [4] (human, pH 7.4, Metabolic bioavailability MF %), the bioavailability turned out to be 65%.
As to `Fc1ccc2c(c1CNc1ncc(C3CCOCC3)c3nncn13)CCO2` [E-Y47], the IC50 in series [1] (Homo sapiens, 336 h) was 6 nM; in series [2] (Homo sapiens, 264 h) it was 18 nM; in series [6] it was 13 nM. For the same compound, the AUC(0-t) in [8] was found to be 7890 ± 2430 ng·h/mL. In addition, the AUC(0-inf) in [8] (extrapolated to infinity, read-out: AUCINF_obs) is 7900 ± 2440 ng·h/mL. Also, the MRT inf in series [8] (read-out: Average residence time MRTINF_obs) came out at 4.92 ± 0.369 h. Also, the half-life in series [8] (read-out: Half life T1/2 (converted)) was 2.56 ± 0.302 h; in [3] (rat, liver microsomes, pH 7.4, rat liver microsomes, read-out: Half life T-half), 2.32 h; in series [4] (human, liver microsomes, pH 7.4, human liver microsomes, read-out: Half life T-half) it was 5.15 h; in series [7] (mouse, liver microsomes, pH 7.4, mouse liver microsomes, read-out: Half life T-half), 2.02 h. In [8] (read-out: Peak concentration Cmax), the Cmax was determined as 1300 ± 628 ng/mL. Besides, the results for the “Clearance rate in vivo Clint In Vivo Extpl” value in series [3] (rat liver microsomes), in series [4] (human liver microsomes) and in series [7] (mouse liver microsomes) were 6.79 mL/min, 519 mL/min and 1.17 mL/min, respectively. Moreover, the “Intrinsic clearance rate in vivo Clint In Vitro” value in series [3] (rat liver microsomes) worked out at 15.1 mL/min/gprot; in series [4] (human liver microsomes), 6.79 mL/min/gprot; in series [7] (mouse liver microsomes) it was 17.3 mL/min/gprot. The “Liver clearance rate Clint Hep In Vivo Extpl” value in [3] (rat liver microsomes) was 5.07 mL/min; in series [4] (human liver microsomes) it was 386 mL/min; in series [7] (mouse liver microsomes), 0.841 mL/min. For the same compound, the figures for the “Metabolic bioavailability MF %” value in series [3] (rat liver microsomes) and in series [7] (mouse liver microsomes) were 74.7% and 72.0%, respectively. Further, the bioavailability in series [4] (human, liver microsomes, pH 7.4, human liver microsomes, read-out: Metabolic bioavailability MF %) was found to be 74.3%.
For `CC1CC(c2cnc(NCc3c(F)ccc4c3CCO4)n3cnnc23)=CCO1` (stereo not drawn) [SL-ZYE-196], the half-inhibitory concentration (IC50) is 4 nM in series [1] (Homo sapiens, 336 h); 19.9 nM in [2] (Homo sapiens, 264 h); 9 to 50 nM in series [9] (Homo sapiens, 264 h); 7 nM in [5] (Homo sapiens, 264 h); 14.1 nM in series [6].
The corresponding values for `O=S(=O)(C1CC1)N1CC=C(c2cnc(NCc3c(F)ccc4c3CCO4)n3cnnc23)CC1` [SL-ZYE-146] are 3 nM, 4 nM, 4 nM, 4.5 nM and 2.9 nM.
The corresponding values for `CCS(=O)(=O)N1CC=C(c2cnc(NCc3c(F)ccc4c3CCO4)n3cnnc23)CC1` [SL-ZYE-144] are 0.8 nM, 4 nM, 3 nM, 1.8 nM and 3.5 nM.
The corresponding values for `CC(C)S(=O)(=O)N1CC=C(c2cnc(NCc3c(F)ccc4c3CCO4)n3cnnc23)CC1` [SL-ZYE-145] are 1 nM, 3.2 nM, 1 nM, 1.7 nM and 8.9 nM.
Consider `CN1CCC(c2cnc(NCc3c(F)ccc4c3CCO4)n3cnnc23)=CC1=O` [SL-E24], for which the IC50 in series [1] (Homo sapiens, 336 h) amounted to 3 nM; in series [2] (Homo sapiens, 264 h), 3.1 nM; in series [9] (Homo sapiens, 264 h), 3 nM; in series [5] (Homo sapiens, 264 h), 5.1 nM; in series [6], 3.9 nM.
For the compound `CC1C=C(c2cnc(NCc3c(F)ccc4c3CCO4)n3cnnc23)CCO1` (stereo not drawn) [SL-ZYE-197], the 50% inhibitory concentration (IC50) in series [1] turned out to be 5 nM; in series [2], 16 nM; in [9], 56 nM; in series [5], 10 nM; in [6] it was 7.8 nM.
